# Measured values published in article PMC7699847, “Acylated Aminooligosaccharides from the Yellow Sea Streptomyces sp. HO1518 as Both α-Glucosidase and Lipase Inhibitors” (Marine Drugs, 2020).
# “And” between values parts separate entries of the source, which are not always exact repeats. Equal values may be shown once. Read-outs that look alike come from different tables or passages of the source.
# Assays:
# sucrase = experiment: Sucrase inhibition assay; format: biochemical; conditions: mean ± SD; triplicate; sucrose substrate, 37 °C; read-out: IC50 Values (μM) Against Sucrase
# Method: 3.5.2. Sucrase Inhibition Assay
# The sucrase inhibition assay was performed according to the method outlined by Honda et al. with some modifications. In brief, 10 µL of enzyme solution (100 U/mL) and 30 µL of test sample solution with appropriate concentration (dissolved in distilled water) were added into the 96-well plates, and were incubated for 10 min at 37 °C. The reaction was conducted by addition of 100 µL of sucrose solution (60 mM, dissolved in 0.1 M phosphate buffer solution). Then, the mixture was added to 200 µL of 3,5-dinitrosalysilic acid, which was heated in boiling water for 5 min to stop the reaction. The absorbance of each tested compound was measured at 540 nm. The inhibition rates were calculated using the following equation. All experiments were measured in triplicate, and a logarithmic regression curve was established to calculate IC50 values. (1) Inhibition % = Acontrol - Asample/Acontrol × 100 where Acontrol represents the absorbance of the mixture of […], sucrose solution 3,5-dinitrosalysilic acid and enzyme solution; while the Asample is the absorbance of the mixture of phosphate buffer, sucrose solution 3,5-dinitrosalysilic acid and enzyme solution.
# [1] = molecular target: T1, porcine pancreatic α-amylase (PPA) (Sus scrofa, UniProt P00690); experiment: Porcine pancreatic α-amylase (PPA) inhibition assay
# T1 sequence (P00690 16-511): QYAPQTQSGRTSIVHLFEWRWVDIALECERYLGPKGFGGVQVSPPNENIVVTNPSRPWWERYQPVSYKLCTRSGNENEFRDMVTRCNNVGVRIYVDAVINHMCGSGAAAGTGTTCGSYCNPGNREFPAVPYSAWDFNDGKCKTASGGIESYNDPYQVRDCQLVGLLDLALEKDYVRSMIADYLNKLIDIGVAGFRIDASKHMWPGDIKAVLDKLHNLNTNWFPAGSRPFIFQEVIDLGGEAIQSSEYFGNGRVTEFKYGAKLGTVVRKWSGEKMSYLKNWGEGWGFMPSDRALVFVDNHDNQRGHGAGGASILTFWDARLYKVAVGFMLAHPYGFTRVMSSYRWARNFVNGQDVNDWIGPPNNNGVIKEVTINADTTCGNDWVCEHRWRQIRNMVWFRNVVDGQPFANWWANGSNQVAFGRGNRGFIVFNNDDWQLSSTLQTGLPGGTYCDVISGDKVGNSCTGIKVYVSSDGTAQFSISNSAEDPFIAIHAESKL
# pancreatic lipase (PL) = molecular target: T2, pancreatic lipase (PL) (Sus scrofa, UniProt P00591); experiment: Pancreatic lipase (PL) inhibition assay (pNP laurate method); format: biochemical; conditions: mean ± SD; triplicate; pNP laurate substrate, 30 min at 37 °C, Tris buffer pH 8.2; read-out: IC50 Values (μM) Against PL
# T2 construct: purchased Sigma Aldrich Co. (St Louis, MO, USA)
# T2 sequence (P00591 1-450): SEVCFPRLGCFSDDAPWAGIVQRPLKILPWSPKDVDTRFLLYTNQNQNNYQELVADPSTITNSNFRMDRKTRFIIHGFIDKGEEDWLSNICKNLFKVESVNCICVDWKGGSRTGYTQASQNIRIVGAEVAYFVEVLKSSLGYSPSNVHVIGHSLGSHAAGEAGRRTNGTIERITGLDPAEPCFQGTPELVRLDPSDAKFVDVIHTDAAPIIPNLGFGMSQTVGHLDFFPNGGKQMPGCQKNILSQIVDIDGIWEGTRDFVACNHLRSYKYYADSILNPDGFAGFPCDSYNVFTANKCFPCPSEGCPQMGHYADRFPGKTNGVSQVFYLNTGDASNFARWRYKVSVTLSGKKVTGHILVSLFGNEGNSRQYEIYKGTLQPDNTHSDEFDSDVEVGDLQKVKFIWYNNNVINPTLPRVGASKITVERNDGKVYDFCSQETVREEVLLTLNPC
# Method: 3.6. Pancreatic Lipase (PL) Inhibition Assay
# This assay was carried out using p-nitrophenyl laurate (pNP laurate) method with slight modification. In detail, 150 µL lipase solution (10 mg/mL, dissolved in the 0.1 M Tris buffer) was mixed with 50 µL tested sample solution (inhibitors) in a 1.5 mL centrifuge tube, then 350 µL 0.1 M Tris buffer (pH = 8.2) was added and pre-incubated. After the addition of 450 µL pNP laurate (substrate), the reaction was incubated for 30 min at 37 °C. The mixtures were heated in boiling water for 5 min to terminate the reaction. After cooling to RT, the tube was centrifuged at 12,000 rpm for 3 min. A portion of 100 µL of mixture was added into a 96-well plate, which was measured at 405 nm. The percentage of inhibitory activities was calculated using the formula below. All data were performed in triplicate, and a logarithmic regression curve was established to calculate IC50 values. (2) Inhibition% = [1 - (Asample - Ablank/Atest - Acontrol)] × 100 where Asample is the absorbance of the mixture of sample solution, pNP solution and enzyme solution; Ablank is the absorbance of the mixture of sample solution and pNP solution without enzyme; Atest is the absorbance of the mixture of Tris buffer, pNP solution and enzyme solution; Acontrol is the absorbance of the mixture of Tris buffer and pNP solution without enzyme.
# [2] = molecular target: T1, porcine pancreatic α-amylase (PPA); design: purchased Sigma Aldrich Co. (St Louis, MO, USA); method as in PMID 30360574; conditions: earlier study of the same authors; cited from earlier work
SMILES,IC50 (sucrase) [µM],IC50 [1] [µM],IC50 (pancreatic lipase (PL)),"IC50 ([1]; read-out: IC50 Values (μM) Against PPA, mean ± SD, acarbose as positive control) [µM]","α-amylase IC50, fold stronger than acarbose [2] [fold]"
CC(C)C(=O)OCC1OC(OC2C(CO)OC(OC3C(CO)OC(OC4C(CO)OC(O)C(O)C4O)C(O)C3O)C(O)C2O)C(O)C(O)C1OC1OC(C)C(NC2C=C(CO)C(O)C(O)C2O)C(O)C1O (centres unmarked) [Compound 1],5.5 ± 0.09,0.22 ± 0.04,2.16 ± 0.6 µM,,
"CCC(C)C(=O)OCC1OC(OC2C(CO)OC(OC3C(CO)OC(OC4C(CO)OC(O)C(O)C4O)C(O)C3O)C(O)C2O)C(O)C(O)C1OC1OC(C)C(NC2C=C(CO)C(O)C(O)C2O)C(O)C1O (centres unmarked) [Compound 2, D6-O-2-methyl-butyryl-acarviostatin I03]",3.12 ± 0.1,0.15 ± 0.01,4.92 ± 0.2 µM,,
CC(C)C(=O)OCC1OC(OC2C(CO)OC(OC3C(CO)OC(OC4C(CO)OC(O)C(O)C4O)C(O)C3O)C(O)C2O)C(O)C(O)C1OC1OC(C)C(NC2C=C(CO)C(OC3OC(CO)C(OC4OC(C)C(NC5C=C(CO)C(O)C(O)C5O)C(O)C4O)C(O)C3O)C(O)C2O)C(O)C1O (centres unmarked) [Compound 3],1.45 ± 0.07,,0.82 ± 0.08 µM,0.04 ± 0.01,
"CC(C)CC(=O)OC[C@H]1O[C@H](O[C@H]2[C@H](O)[C@@H](O)[C@@H](O[C@H]3[C@H](O)[C@@H](O)[C@@H](O[C@H]4[C@H](O)[C@@H](O)C(O)O[C@@H]4CO)O[C@@H]3CO)O[C@@H]2CO)[C@H](O)[C@@H](O)[C@@H]1O[C@H]1O[C@H](C)[C@@H](N[C@H]2C=C(CO)[C@@H](O)[C@H](O)[C@H]2O)[C@H](O)[C@H]1O (some centres unmarked) [Compound 4, isovalertatin M03]",9.34 ± 0.12,0.34 ± 0.07,3.2 ± 0.1 µM,,
"CC(=O)OC[C@H]1O[C@H](O[C@H]2[C@H](O)[C@@H](O)[C@@H](O[C@H]3[C@H](O)[C@@H](O)[C@@H](O[C@H]4[C@H](O)[C@@H](O)C(O)O[C@@H]4CO)O[C@@H]3CO)O[C@@H]2CO)[C@H](O)[C@@H](O)[C@@H]1O[C@H]1O[C@H](C)[C@@H](N[C@H]2C=C(CO)[C@@H](O)[C@H](O)[C@H]2O)[C@H](O)[C@H]1O (some centres unmarked) [Compound 5, D6-O-acetyl-acarviostatin I03]",2.98 ± 0.1,,19.7 ± 1 µM,,
"CCC(=O)OC[C@H]1O[C@H](O[C@H]2[C@H](O)[C@@H](O)[C@@H](O[C@H]3[C@H](O)[C@@H](O)[C@@H](O[C@H]4[C@H](O)[C@@H](O)C(O)O[C@@H]4CO)O[C@@H]3CO)O[C@@H]2CO)[C@H](O)[C@@H](O)[C@@H]1O[C@H]1O[C@H](C)[C@@H](N[C@H]2C=C(CO)[C@@H](O)[C@H](O)[C@H]2O)[C@H](O)[C@H]1O (some centres unmarked) [Compound 6, D6-O-propionyl-acarviostatin I03]",2.36 ± 0.12,,15.9 ± 0.6 µM,,
"CC(O)CC(=O)OC[C@H]1O[C@H](O[C@H]2[C@H](O)[C@@H](O)[C@@H](O[C@H]3[C@H](O)[C@@H](O)[C@@H](O[C@H]4[C@H](O)[C@@H](O)C(O)O[C@@H]4CO)O[C@@H]3CO)O[C@@H]2CO)[C@H](O)[C@@H](O)[C@@H]1O[C@H]1O[C@H](C)[C@@H](N[C@H]2C=C(CO)[C@@H](O)[C@H](O)[C@H]2O)[C@H](O)[C@H]1O (stereo partly drawn) [Compound 7, D6-O-β-hydroxybutyryl-acarviostatin I03]",3.68 ± 0.13,,8.1 ± 0.6 µM,,
"CC(=O)OC[C@H]1O[C@H](O[C@H]2[C@H](O)[C@@H](O)[C@@H](O[C@H]3[C@H](O)[C@@H](O)[C@@H](O[C@H]4[C@H](O)[C@@H](O)C(O)O[C@@H]4CO)O[C@@H]3CO)O[C@@H]2CO)[C@H](O)[C@@H](O)[C@@H]1O[C@H]1O[C@H](C)[C@@H](N[C@H]2C=C(CO)[C@@H](O[C@H]3O[C@H](CO)[C@@H](O[C@H]4O[C@H](C)[C@@H](N[C@H]5C=C(CO)[C@@H](O)[C@H](O)[C@H]5O)[C@H](O)[C@H]4O)[C@H](O)[C@H]3O)[C@H](O)[C@H]2O)[C@H](O)[C@H]1O (some centres unmarked) [Compound 8, D6-O-acetyl-acarviostatin II03]",0.41 ± 0.05,,2 ± 0.18 µM,,540
"C[C@H]1O[C@H](O[C@H]2[C@H](O)[C@@H](O)[C@@H](O[C@H]3[C@H](O)[C@@H](O)C(O)O[C@@H]3CO)O[C@@H]2CO)[C@H](O)[C@@H](O)[C@@H]1N[C@H]1C=C(CO)[C@@H](O)[C@H](O)[C@H]1O (some centres unmarked) [acarbose, reference compound]",11.3 ± 0.2,,> 200 µM and 208 µM,,
